According to patent publication US4988681A, “Phosphinic acid derivatives” (Banyu Pharmaceutical Co., Ltd., priority 1988, dated 1991):
Where two headings read alike, the source gives them in different places. Each block holds one compound with its values, some of them ahead of it.

How the values were obtained:
[1] = target: T1, porcine kidney dehydropeptidase I (Sus scrofa, UniProt P22412); assay: Inhibitory activity on porcine kidney dehydropeptidase I (DHP-I); type: biochemical
T1 construct: Frozen porcine kidney cortex was homogenized; from tissue; host or cells: porcine kidney cortex
T1 sequence (P22412 17-409): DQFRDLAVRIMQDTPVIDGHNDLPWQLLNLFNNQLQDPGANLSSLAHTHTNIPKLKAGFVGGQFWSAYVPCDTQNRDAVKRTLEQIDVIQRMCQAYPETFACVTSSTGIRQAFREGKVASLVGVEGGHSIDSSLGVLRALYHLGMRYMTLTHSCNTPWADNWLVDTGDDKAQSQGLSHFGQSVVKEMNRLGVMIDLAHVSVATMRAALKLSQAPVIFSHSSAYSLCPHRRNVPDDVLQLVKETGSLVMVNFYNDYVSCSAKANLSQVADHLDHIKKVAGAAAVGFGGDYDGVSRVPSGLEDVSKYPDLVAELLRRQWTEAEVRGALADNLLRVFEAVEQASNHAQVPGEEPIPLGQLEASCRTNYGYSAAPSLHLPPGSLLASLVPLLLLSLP
Experimental: (1) Inhibitory activity on porcine kidney dehydropeptidase I
(i) Purification of porcine dehydropeptidase I
Frozen porcine kidney cortex was homogenized. Butanol (1/4 volume) pre-cooled in a dry ice-acetone bath was added to the homogenate, and the mixture was stirred at 4° C. for 43 hours. The mixture was then dialyzed for one day and centrifuged at 3,000 g for 30 minutes. To the resulting supernatant was added ammonium sulfate. A precipitate at the salt concentration range between 50 and 75% was collected to give a crude enzyme preparation which was re-dissolved in a 50 mM MOPS buffer containing 0.5 M NaCl. The solution was charged on a cilastatin affinity column. Elution with a 50 mM MOPS buffer containing 0.5 M NaCN gave a purified enzyme preparation.
(ii) Measurement of inhibitory activity
The resulting enzyme preparation (3 mU) and an inhibitor were pre-incubatedat 37° C. for 3 hours in 2.7 ml of a 50 mM MOPS buffer (pH 7.4), and then 2.475 ml of the mixture was transferred into a cuvette. As a substrate, 25 microliters of a 5 mM glycyldehydrophenylalanine solution in a 50 mM MOPS buffer (pH 7.4) was added to start an enzymic reaction. The reaction was carried out at 37° C. in a spectrophotometer fitted with a constant-emperature device, and a decrease of the absorbance at 275 nm during a period of 5 minutes was measured. […] An IC50 value was calculated from the percent inhibition data.
One unit (U) is defined as the amount of the enzyme which hydrolyzes 1 micromole of the substrate (glycyldehydrophenylalanine) per minute at a substrate concentration of 0.05 mM at 37° C. in a 50 mM MOPS buffer (pH 7.4).

[2] = Pharmacokinetic evaluation: plasma concentration in rats; type: in vivo, Male SD rats; details: for AUC: trapezoidal rule; for concentration at 0.5 h: 1/2 h; for concentration at 0.25 h: 1/4 h; for concentration at 5 min: 1/12 h
Experimental: (4) Pharmacokinetic evaluations
Male SD rats ([…]) were divided into groups each consisting of three animals. […] Furthermore, cilastatin was intravenously administered to a 14th group as a control group.
Plasma samples were taken periodically from the carotid artery through a cannula inserted into it at the points of 1/12, 1/4, 1/2, 1, 2, 4, 6, 8 and 24 hours after the administration.
The area under the curve (AUC) of the plasma concentration was determined according to the trapezoidal rule.

[3] = substrate glycyldehydrophenylalanine, pH 7.4, 37° C., 3 h pre-incubation, read-out: Concentration producing 50% inhibition (IC50)
[4] = rat, plasma, ester po, 10 mg/kg equivalent to compound No. 2, calculated as free acid (No. 2)
[5] = rat, plasma, iv 10 mg/kg (cilastatin dose not given)

Structure (SMILES): Cc1oc(=O)oc1COC(=O)/C(=C/C1CCCCC1)CP(=O)(O)CC(C)C [Compound No. 27, (5-methyl-2-oxo-1,3-dioxol-4-yl)methyl (Z)-3-cyclohexyl-2-(hydroxyisobutylphosphinoyl)methylpropenoate]
AUC ([2]; plasma, rat, ester po, 10 mg/kg equivalent to compound No. 2, calculated as free acid (No. 2)): 56900 ng·h/mL | concentration at 0.5 h [2, 4]: 13300 ng/mL | concentration at 0.25 h [2, 4]: 10100 ng/mL | concentration at 5 min [2, 4]: 1500 ng/mL | concentration at 1 h [2, 4]: 11500 ng/mL | concentration at 2 h [2, 4]: 9300 ng/mL | concentration at 4 h [2, 4]: 4600 ng/mL | concentration at 6 h [2, 4]: 2600 ng/mL | concentration at 8 h [2, 4]: 1400 ng/mL | Oral absorbability ([2]; rats, in words): better oral absorbability than the compound No. 2 | IC50 [1, 3]: 150 µM

Structure (SMILES): COC(=O)CSCCCCC/C=C(\CP(=O)(O)CC(C)C)C(=O)O [compound 21, (Z)-2-(hydroxyisobutylphosphinoyl)methyl-8-methoxycarbonylmethylthio-2-octenoic acid]
IC50 [1, 3]: 0.031 µM

Structure (SMILES): CCCCCCCCC/C=C(\CP(=O)(O)CC(C)C)C(=O)O [compound 7, (Z)-2-(hydroxyisobutylphosphinoyl)methyl-2-dodecenoic acid]
IC50 [1, 3]: 0.027 µM

Structure (SMILES): CC(C)P(=O)(O)C/C(=C\C1CCCCC1)C(=O)O [compound 3, (Z)-3-cyclohexyl-2-(hydroxyisopropylphosphinoyl)methylpropenoic acid]
IC50 [1, 3]: 0.042 µM

Structure (SMILES): CC(C)CP(=O)(O)C/C(=C\CCCSc1nccn1C)C(=O)O [compound 24, (Z)-2-(hydroxyisobutylphosphinoyl)methyl-6-(1-methylimidazol-2-yl)thio-2-hexenoic acid]
IC50 [1, 3]: 0.048 µM

Structure (SMILES): O=C(O)/C(=C/C1CC1)CP(=O)(O)CC1CCCCC1 [compound 16, (Z)-2-(cyclohexylmethylhydroxyphosphinoyl)methyl-3-cyclopropylpropenoic acid]
IC50 [1, 3]: 0.041 µM

Structure (SMILES): C/C=C(\CP(=O)(O)CC(C)C)C(=O)O [compound 30, (Z)-2-(hydroxyisobutylphosphinoyl)methyl-2-butenoic acid]
IC50 [1]: 0.075 µM

Structure (SMILES): CC(C)CP(=O)(O)C/C(=C\CCCCl)C(=O)O [compound 12, (Z)-6-chloro-2-(hydroxyisobutylphosphinoyl)methyl-2-hexenoic acid]
IC50 [1, 3]: 0.051 µM

Structure (SMILES): CC(C)CP(=O)(O)C/C(=C\CCc1ccccc1)C(=O)O [compound 11, (Z)-2-(hydroxyisobutylphosphinoyl)methyl-5-phenyl-2-pentenoic acid]
IC50 [1, 3]: 0.057 µM

Structure (SMILES): CCCCP(=O)(O)C/C(=C\C1CCCCC1)C(=O)O [Compound No. 1, (Z)-2-(butylhydroxyphosphinoyl)methyl-3-cyclohexylpropenoic acid]
IC50 [1, 3]: 0.038 µM

Structure (SMILES): CCCCC/C=C(\CP(=O)(O)CC(C)C)C(=O)O [compound 6, (Z)-2-(hydroxyisobutylphosphinoyl)methyl-2-octenoic acid]
IC50 [1, 3]: 0.046 µM

Structure (SMILES): CC(C)CP(=O)(O)C/C(=C\CCCSCCO)C(=O)O [compound 31, (Z)-6-(2-hydroxyethyl)thio-2-(hydroxyisobutylphosphinoyl)methyl-2-hexenoic acid]
IC50 [1, 3]: 0.064 µM

Structure (SMILES): CCCCCCCCCCP(=O)(O)C/C(=C\C1CCCCC1)C(=O)O [compound 4, (Z)-3-cyclohexyl-2-(decylhydroxyphosphinoyl)methylpropenoic acid]
IC50 [1, 3]: 0.068 µM

Structure (SMILES): CCCCP(=O)(O)CC(CC1CCCCC1)C(=O)O (stereo not drawn) [compound 26, 2-(butylhydroxyphosphinoyl)methyl-3-cyclohexylpropionic acid]
IC50 [1, 3]: 0.028 µM

Structure (SMILES): CC(C)CP(=O)(O)C/C(=C\CCCCCCl)C(=O)O [compound 13, (Z)-8-chloro-2-(hydroxyisobutylphosphinoyl)methyl-2-octenoic acid]
IC50 [1, 3]: 0.044 µM

Structure (SMILES): CC(C)CP(=O)(O)C/C(=C\c1ccccc1)C(=O)O [compound 29, (Z)-2-(hydroxyisobutylphosphinoyl)methyl-3-phenylpropenoic acid]
IC50 [1, 3]: 0.06 µM

More lines, now with the values ahead:

IC50 [1, 3]: 0.019 µM
Structure (SMILES): CC(C)CP(=O)(O)C/C(=C\CCCCCSc1ncccc1O)C(=O)O [compound 25, (Z)-8-(3-hydroxy-2-pyridyl)thio-2-(hydroxyisobutylphosphinoyl)methyl-2-octenoic acid]

AUC ([2]; plasma, rat, iv 10 mg/kg (cilastatin dose not given)): 226000 ng·h/mL | AUC ([2]; plasma, rat, po 10 mg/kg): 18400 ng·h/mL | concentration at 0.5 h [2, 5]: 55000 ng/mL | concentration at 0.25 h [2, 5]: 74700 ng/mL | concentration at 5 min [2, 5]: 86700 ng/mL | concentration at 1 h ([2]; rat, plasma, iv 10 mg/kg (cilastatin dose not given), N.D.: below the detection limit): 38000 ng/mL | concentration at 2 h ([2]; rat, plasma, iv 10 mg/kg): 25200 ng/mL | concentration at 4 h ([2]; rat, plasma, iv 10 mg/kg): 14800 ng/mL | concentration at 6 h ([2]; rat, plasma, iv 10 mg/kg, N.D.: below the detection limit): 10800 ng/mL | concentration at 8 h ([2]; rat, plasma, iv 10 mg/kg): 6400 ng/mL | concentration at 24 h ([2]; rat, plasma, iv 10 mg/kg, 24 h, N.D.: below the detection limit): 500 ng/mL | concentration at 0.5 h ([2]; rat, plasma, po 10 mg/kg): 5000 ng/mL | concentration at 0.25 h ([2]; rat, plasma, po 10 mg/kg): 4100 ng/mL | concentration at 5 min ([2]; rat, plasma, po 10 mg/kg): 500 ng/mL | concentration at 1 h ([2]; rat, plasma, po 10 mg/kg): 5000 ng/mL | concentration at 2 h ([2]; rat, plasma, po 10 mg/kg): 3200 ng/mL | concentration at 4 h ([2]; rat, plasma, po 10 mg/kg): 2100 ng/mL | concentration at 6 h ([2]; rat, plasma, po 10 mg/kg): 1000 ng/mL | concentration at 8 h ([2]; rat, plasma, po 10 mg/kg, N.D.: below the detection limit): 100 ng/mL | IC50 [1, 3]: 0.018 µM
Structure (SMILES): O=C(O)/C(=C/C1CCCCC1)CP(=O)(O)CC1CCCC1 [Compound No. 17, (Z)-3-cyclohexyl-2-(cyclopentylmethylhydroxyphosphinoyl)methylpropenoic acid]

IC50 [1, 3]: 0.025 µM
Structure (SMILES): CC(C)CP(=O)(O)C/C(=C\CCCSc1c[nH]nn1)C(=O)O [compound 19, (Z)-2-(hydroxyisobutylphosphinoyl)methyl-6-(1,2,3-triazol-4-yl)thio-2-hexenoic acid]

IC50 [1, 3]: 0.023 µM
Structure (SMILES): CC(C)CP(=O)(O)C/C(=C\CCCSc1ncccc1O)C(=O)O [compound 22, (Z)-6-(3-hydroxy-2-pyridyl)thio-2-(hydroxyisobutylphosphinoyl)methyl-2-hexenoic acid]

IC50 [1, 3]: 0.015 µM
Structure (SMILES): CC(C)C/C=C(\CP(=O)(O)CC(C)C)C(=O)O [compound 9, (Z)-2-(hydroxyisobutylphosphinoyl)methyl-5-methyl-2-hexenoic acid]

IC50 [1, 3]: 0.016 µM
Structure (SMILES): CC(C)/C=C(\CP(=O)(O)CC(C)C)C(=O)O [compound 8, (Z)-2-(hydroxyisobutylphosphinoyl)methyl-4-methyl-2-pentenoic acid]

IC50 [1, 3]: 0.022 µM
Structure (SMILES): CC(C)CP(=O)(O)C/C(=C\CCCCCSCC(=O)O)C(=O)O [compound 20, (Z)-8-carboxymethylthio-2-(hydroxyisobutylphosphinoyl)methyl-2-octenoic acid]

IC50 [1, 3]: 0.021 µM
Structure (SMILES): CC(C)CP(=O)(O)C/C(=C\CCCSc1ccccc1)C(=O)O [compound 18, (Z)-2-(hydroxyisobutylphosphinoyl)methyl-6-phenylthio-2-hexenoic acid]

IC50 [1, 3]: 0.0063 µM
Structure (SMILES): CC1(C)CC1P(=O)(O)C/C(=C\C1CC1)C(=O)O (stereo not drawn) [compound 15, (Z)-3-cyclopropyl-2-(2,2-dimethylcyclopropylhydroxyphosphinoyl)methylpropenoic acid]
